Drawing on patent US20240383886A1, “Protein Tyrosine Phosphatase Degraders and Methods of Use Thereof” (CALICO LIFE SCIENCES LLC, priority 2019, published 2024), this text covers DC50 for 18 compounds.

Molecules are shown by their SMILES.

Experiment [1] has as its target T1, PTPN2 (Homo sapiens, UniProt P17706).
T1 construct: expressed in transfected cells; host or cells: 293T (293T.109 HiBiT-PTPN2 line; parental 293T WT from ATCC)
T1 sequence (P17706 1-415): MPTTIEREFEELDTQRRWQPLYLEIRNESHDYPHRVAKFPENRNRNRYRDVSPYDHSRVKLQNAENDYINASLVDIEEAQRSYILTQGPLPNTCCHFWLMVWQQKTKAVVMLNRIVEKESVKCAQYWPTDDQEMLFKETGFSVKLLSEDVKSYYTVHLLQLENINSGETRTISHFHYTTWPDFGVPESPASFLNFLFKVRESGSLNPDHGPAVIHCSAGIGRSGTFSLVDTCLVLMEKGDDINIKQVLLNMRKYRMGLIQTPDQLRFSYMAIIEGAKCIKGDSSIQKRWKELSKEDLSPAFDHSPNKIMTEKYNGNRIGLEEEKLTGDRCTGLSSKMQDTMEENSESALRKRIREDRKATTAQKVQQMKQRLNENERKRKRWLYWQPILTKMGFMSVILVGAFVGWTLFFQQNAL
As to the kind of experiment: HiBiT-Degradation 293T.109 PTPN2 (Nano-Glo HiBiT Lytic Assay). The class given is cell-based. The conditions noted are these: 293T.109 (HiBiT-PTPN2) cells, 24.0 hours. In short, it runs like this: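 293T cells ectopically expressing N-terminally HiBiT-tagged PTPN2 were seeded at 5000 cells/well. They were treated with an 11-point half-log titration from 10 μM, in duplicate, for 24 hours at 37° C., 5% CO2. Remaining tagged PTPN2 was quantified by lytic HiBiT luminescence against untreated and no-reagent controls.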
(The HiBiT peptide binds its large partner to form an active luciferase.)

For experiment [2], the system named is PTPN2. As to the kind of experiment: HiBiT-Degradation B16F10.4 PTPN2. The class given is cell-based. The conditions noted are these: B16F10.4 cells, 24.0 hours.

Broadly, the DC50 is the concentration at which degradation of the target reaches its halfway point. Higher therefore signals a less potent degrader.

As for `Cn1c(=O)n(C2CCC(=O)NC2=O)c2ccc(C3CCN(C(=O)CN4CC[C@H](COc5ccc6cc(O)c(N7CC(=O)NS7(=O)=O)c(F)c6c5)C4)CC3)cc21` (stereo partly drawn) [Example 138, 3-[5-[1-[2-[(3S)-3-[[8-fluoro-6-hydroxy-7-(1,1,4-trioxo-1,2,5-thiadiazolidin-2-yl)-2-naphthyl]oxymethyl]pyrrolidin-1-yl]acetyl]-4-piperidyl]-3-methyl-2-oxo-benzimidazol-1-yl]piperidine-2,6-dione], the 50% degradation concentration (DC50) on PTPN2 [1] and with PTPN2 [2] was 50 to 200 nM in each case.
With `Cn1c(=O)n(C2CCC(=O)NC2=O)c2ccc(-c3ccc(NC(=O)NCCOc4ccc5cc(O)c(N6CC(=O)NS6(=O)=O)c(F)c5c4)cc3)cc21` (stereo not drawn) [Example 139, 1-[4-[1-(2,6-dioxo-3-piperidyl)-3-methyl-2-oxo-benzimidazol-5-yl]phenyl]-3-[2-[[8-fluoro-6-hydroxy-7-(1,1,4-trioxo-1,2,5-thiadiazolidin-2-yl)-2-naphthyl]oxy]ethyl]urea], the DC50 at PTPN2 [1] and in the experiment on PTPN2 [2] was 50 to 200 nM each time.
As to `Cn1c(=O)n(C2CCC(=O)NC2=O)c2ccc(C3CCN(CC(=O)NCCOc4ccc5cc(O)c(N6CC(=O)NS6(=O)=O)c(F)c5c4)CC3(F)F)cc21` (stereo not drawn) [Example 140, 2-[4-[1-(2,6-dioxo-3-piperidyl)-3-methyl-2-oxo-benzimidazol-5-yl]-3,3-difluoro-1-piperidyl]-N-[2-[[8-fluoro-6-hydroxy-7-(1,1,4-trioxo-1,2,5-thiadiazolidin-2-yl)-2-naphthyl]oxy]ethyl]acetamide], the values for the DC50 on PTPN2 [1] and in the experiment on PTPN2 [2] were 50 to 200 nM and at least 1000 nM, respectively.
For the compound `Cn1c(=O)n(C2CCC(=O)NC2=O)c2ccc(C3CCN(C(=O)CN4CC[C@@H](COc5ccc6cc(O)c(N7CC(=O)NS7(=O)=O)c(F)c6c5)C4)CC3)cc21` (stereo partly drawn) [Example 141, 3-[5-[1-[2-[(3R)-3-[[8-fluoro-6-hydroxy-7-(1,1,4-trioxo-1,2,5-thiadiazolidin-2-yl)-2-naphthyl]oxymethyl]pyrrolidin-1-yl]acetyl]-4-piperidyl]-3-methyl-2-oxo-benzimidazol-1-yl]piperidine-2,6-dione], the values for the DC50 on PTPN2 [1] and in the experiment on PTPN2 [2] were 10 to 50 nM and 50 to 200 nM, respectively.
With `Cn1c(=O)n(C2CCC(=O)NC2=O)c2ccc(N3CCC(CC(=O)N4CCC[C@@H](COc5ccc6cc(O)c(N7CC(=O)NS7(=O)=O)c(F)c6c5)C4)CC3)cc21` (stereo partly drawn) [Example 142, 3-[5-[4-[2-[(3R)-3-[[8-fluoro-6-hydroxy-7-(1,1,4-trioxo-1,2,5-thiadiazolidin-2-yl)-2-naphthyl]oxymethyl]-1-piperidyl]-2-oxo-ethyl]-1-piperidyl]-3-methyl-2-oxo-benzimidazol-1-yl]piperidine-2,6-dione], the DC50 is 50 to 200 nM at PTPN2 [1] and 200 to 1000 nM in the experiment with PTPN2 [2].
The corresponding values for `Cn1c(=O)n(C2CCC(=O)NC2=O)c2ccc(N3CCC(CC(=O)N4CCC[C@H](COc5ccc6cc(O)c(N7CC(=O)NS7(=O)=O)c(F)c6c5)C4)CC3)cc21` (stereo partly drawn) [Example 143, 3-[5-[4-[2-[(3S)-3-[[8-fluoro-6-hydroxy-7-(1,1,4-trioxo-1,2,5-thiadiazolidin-2-yl)-2-naphthyl]oxymethyl]-1-piperidyl]-2-oxo-ethyl]-1-piperidyl]-3-methyl-2-oxo-benzimidazol-1-yl]piperidine-2,6-dione] are 200 to 1000 nM and 200 to 1000 nM.
Consider `Cn1c(=O)n(C2CCC(=O)NC2=O)c2ccc(C3CCN(CCC(=O)N4CC[C@H](c5ccc6cc(O)c(N7CC(=O)NS7(=O)=O)c(F)c6c5)C4)CC3)cc21` (stereo partly drawn) [Example 144], for which the figures for the DC50 on PTPN2 [1] and with PTPN2 [2] were 10 to 50 nM and 50 to 200 nM, respectively.
In the same order, the values of `Cn1c(=O)n(C2CCC(=O)NC2=O)c2ccc(C3CCN(CCC(=O)N4CC[C@@H](c5ccc6cc(O)c(N7CC(=O)NS7(=O)=O)c(F)c6c5)C4)CC3)cc21` (stereo partly drawn) [Example 145] are 10 to 50 nM and 50 to 200 nM.
The corresponding values for `Cn1c(=O)n(C2CCC(=O)NC2=O)c2ccc(C3CCN(Cc4nnc(-c5ccc6c(F)c(N7CC(=O)NS7(=O)=O)c(O)cc6c5)o4)CC3)cc21` (stereo not drawn) [Example 146, 3-[5-[1-[[5-[5-fluoro-7-hydroxy-6-(1,1,4-trioxo-1,2,5-thiadiazolidin-2-yl)-2-naphthyl]-1,3,4-oxadiazol-2-yl]methyl]-4-piperidyl]-3-methyl-2-oxo-benzimidazol-1-yl]piperidine-2,6-dione] are 10 to 50 nM and 200 to 1000 nM.
In the same order, the values of `Cn1c(=O)n(C2CCC(=O)NC2=O)c2ccc(C3CCN(CCN4CCC[C@H](COc5ccc6cc(O)c(N7CC(=O)NS7(=O)=O)c(F)c6c5)C4)CC3)cc21` (stereo partly drawn) [Example 147, 3-[5-[1-[2-[(3S)-3-[[8-fluoro-6-hydroxy-7-(1,1,4-trioxo-1,2,5-thiadiazolidin-2-yl)-2-naphthyl]oxymethyl]-1-piperidyl]ethyl]-4-piperidyl]-3-methyl-2-oxo-benzimidazol-1-yl]piperidine-2,6-dione] are 200 to 1000 nM and 200 to 1000 nM.
With `Cn1c(=O)n(C2CCC(=O)NC2=O)c2ccc(Nc3ccc(CNC(=O)c4ccc5c(F)c(N6CC(=O)NS6(=O)=O)c(O)cc5c4)cc3)cc21` (stereo not drawn) [Example 148, N-[[4-[[1-(2,6-dioxo-3-piperidyl)-3-methyl-2-oxo-benzimidazol-5-yl]amino]phenyl]methyl]-5-fluoro-7-hydroxy-6-(1,1,4-trioxo-1,2,5-thiadiazolidin-2-yl)naphthalene-2-carboxamide], the 50% degradation concentration (DC50) on PTPN2 [1] and in the experiment on PTPN2 [2] was 200 to 1000 nM in each case.
With `Cn1c(=O)n(C2CCC(=O)NC2=O)c2ccc(C3CCN(CCN4CC[C@@H](COc5ccc6cc(O)c(N7CC(=O)NS7(=O)=O)c(F)c6c5)C4)CC3)cc21` (stereo partly drawn) [Example 149, 3-[5-[1-[2-[(3R)-3-[[8-fluoro-6-hydroxy-7-(1,1,4-trioxo-1,2,5-thiadiazolidin-2-yl)-2-naphthyl]oxymethyl]pyrrolidin-1-yl]ethyl]-4-piperidyl]-3-methyl-2-oxo-benzimidazol-1-yl]piperidine-2,6-dione], the DC50 at PTPN2 [1] was in the range of 10 to 50 nM; with PTPN2 [2] it was 50 to 200 nM.
On to `Cn1c(=O)n(C2CCC(=O)NC2=O)c2ccc(C3CCN(CCN4CC[C@H](COc5ccc6cc(O)c(N7CC(=O)NS7(=O)=O)c(F)c6c5)C4)CC3)cc21` (stereo partly drawn) [Example 150, 3-[5-[1-[2-[(3S)-3-[[8-fluoro-6-hydroxy-7-(1,1,4-trioxo-1,2,5-thiadiazolidin-2-yl)-2-naphthyl]oxymethyl]pyrrolidin-1-yl]ethyl]-4-piperidyl]-3-methyl-2-oxo-benzimidazol-1-yl]piperidine-2,6-dione], for which the DC50 on PTPN2 [1] and in the experiment on PTPN2 [2] was 50 to 200 nM each time.
Turning to `Cn1c(=O)n(C2CCC(=O)NC2=O)c2ccc(-c3ccc(NCC(C)(C)CCOc4ccc5cc(O)c(N6CC(=O)NS6(=O)=O)c(F)c5c4)cc3)cc21` (stereo not drawn) [Example 151, 3-[5-[4-[[4-[[8-fluoro-6-hydroxy-7-(1,1,4-trioxo-1,2,5-thiadiazolidin-2-yl)-2-naphthyl]oxy]-2,2-dimethyl-butyl]amino]phenyl]-3-methyl-2-oxo-benzimidazol-1-yl]piperidine-2,6-dione], the DC50 at PTPN2 [1] was 50 to 200 nM; with PTPN2 [2], at least 1000 nM.
With `Cn1nc(C2CCC(=O)NC2=O)c2ccc(C3CCN(CCn4cc(-c5ccc6c(F)c(N7CC(=O)NS7(=O)=O)c(O)cc6c5)cn4)CC3)cc21` (stereo not drawn) [Example 152, 3-[6-[1-[2-[4-[5-fluoro-7-hydroxy-6-(1,1,4-trioxo-1,2,5-thiadiazolidin-2-yl)-2-naphthyl]pyrazol-1-yl]ethyl]-4-piperidyl]-1-methyl-indazol-3-yl]piperidine-2,6-dione], the results for the DC50 at PTPN2 [1] and in the experiment on PTPN2 [2] were 10 to 50 nM and 200 to 1000 nM, respectively.
Regarding `Cn1c(=O)n(C2CCC(=O)NC2=O)c2ccc(-c3ccc(CNCC(C)(C)CCOc4ccc5cc(O)c(N6CC(=O)NS6(=O)=O)c(F)c5c4)cc3)cc21` (stereo not drawn) [Example 153, 3-[5-[4-[[[4-[[8-fluoro-6-hydroxy-7-(1,1,4-trioxo-1,2,5-thiadiazolidin-2-yl)-2-naphthyl]oxy]-2,2-dimethyl-butyl]amino]methyl]phenyl]-3-methyl-2-oxo-benzimidazol-1-yl]piperidine-2,6-dione], the DC50 on PTPN2 [1] is 50 to 200 nM; in the experiment on PTPN2 [2], 200 to 1000 nM.
In the case of `Cn1c(=O)n(C2CCC(=O)NC2=O)c2ccc(C3CCN(Cc4ccn(-c5ccc6c(F)c(N7CC(=O)NS7(=O)=O)c(O)cc6c5)n4)CC3)cc21` (stereo not drawn) [Example 154, 3-(5-(1-((1-(6-(1,1-dioxido-4-oxo-1,2,5-thiadiazolidin-2-yl)-5-fluoro-7-hydroxynaphthalen-2-yl)-1H-pyrazol-3-yl)methyl)piperidin-4-yl)-3-methyl-2-oxo-2,3-dihydro-1H-benzo[d]imidazol-1-yl)piperidine-2,6-dione], the DC50 at PTPN2 [1] is 200 to 1000 nM; in the experiment on PTPN2 [2] it was at least 1000 nM.
The corresponding values for `Cn1c(=O)n(C2CCC(=O)NC2=O)c2ccc(N3CCC(O)(CC(=O)N4CC[C@@H](COc5ccc6cc(O)c(N7CC(=O)NS7(=O)=O)c(F)c6c5)C4)CC3)cc21` (stereo partly drawn) [Example 155, 3-[5-[4-[2-[(3R)-3-[[8-fluoro-6-hydroxy-7-(1,1,4-trioxo-1,2,5-thiadiazolidin-2-yl)-2-naphthyl]oxymethyl]pyrrolidin-1-yl]-2-oxo-ethyl]-4-hydroxy-1-piperidyl]-3-methyl-2-oxo-benzimidazol-1-yl]piperidine-2,6-dione] are 50 to 200 nM and 200 to 1000 nM.
